# Laboratory results published in patent US7250430B2, “Thiophene-and thiazolesulfonamides as antineoplastic agents” (Eli Lilly and Company, priority 2006, dated 2007).
# What was measured:
# [1] = tested on: Human Colon HCT116 tumor cells; assay: HCT116 Colon Carcinoma Cell Growth Inhibition (WST-1); assay type: cell-based; settings: HCT-116, 72 hr exposure
# Description: Human HCT 116 colon carcinoma cells were grown monolayer culture in RPMI 1640 medium supplemented with 10% fetal bovine serum and 1% penicillin-streptomycin (GibcoBRL, Grand Island, N.Y.). HCT116 cells in exponential growth phase were exposed to various concentrations of the test compounds at 37° C. for 72 hr in 5% carbon dioxide/air. After exposure to the agent, the cells were washed with 0.9% phosphate buffered saline. Growth inhibition was determined using WST-1 cell proliferation reagent as described above. The results are expressed as the growth fraction of treated cells compared with control cultures. Representative compounds of the present invention were tested for efficacy against the human colon HCT116 tumor cells.
# [2] = tested on: Human Colon Carcinoma HT-29; assay: Human Tumor Xenograft Assay, tumor growth delay; assay type: in vivo, mouse; settings: 5 consecutive days, 2 days rest
# Description: Inhibition of tumors transplanted into mice is an accepted procedure for studying the efficacy of antitumor agents (Corbett, et al., In vivo Methods for Screening and Preclinical Testing; Use of rodent solid tumors for drug discovery., In: Anticancer Drug Development Guide: Preclinical Screening, Clinical Trials, and Approval, B. Teicher (ed), Humana Press Inc., Totowa, N.J., Chapter 5, pages 75-99 (1997); (Corbett, et al., Int. J. Pharmacog., 33, Supplement, 102-122 (1995)). Murine tumors or human xenografts were implanted essentially as described by Corbett in In vivo Methods for Screening and Preclinical Testing; Use of rodent solid tumors for drug discovery. Briefly, the murine tumor or human xenograft was implanted subcutaneously using either 12-gauge trocar implants or counted number of cells. The location for the trocar insertion is midway between the axillary and inguinal region along the side of the mouse. The trocar is slipped approximately ¾ of an inch subcutaneously up toward the axilla before discharging the tumor fragment, and pinching the skin as the trocar is removed. Alternatively, human tumor cells prepared from cell culture (1×10^7 cells) mixed with an equal volume of Matrigel (Becton-Dickinson) were implanted subcutaneously in a hind-leg of a male or female nude mouse (Charles River). A test compound in vehicle or vehicle alone was administered by intravenous bolus injection (iv), intraperitoneal injection (ip), or oral gavage (po). Each treatment group, as well as a group of untreated control animals, consisted of eight to ten animals per group in each experiment. Subcutaneous tumor response was monitored by tumor volume measurement performed twice each week over the course of the experiment (60-120 days). Body weights were taken as a general measure of toxicity. The subcutaneous tumor data were analyzed by determining the median […] for each treatment group over the course of the experiment and calculating the tumor growth delay as the difference in days for the treatment versus the control tumors to reach a volume of either 500 or 1000 mm^3.
# The compound of Example 64 was tested in two separate laboratories against a variety of murine and human tumors substantially as described supra. The parameters measured in each experiment are summarized in the following paragraphs. Tumor Weight(mg)=(a×b^2)/2 where a=tumor length (mm) and b=tumor width (mm).
# Tumor Growth Delay=T−C where T is the median time (days) required for the treatment group tumors to reach a predetermined size, and C is the median time (days) for the control group tumors to reach the same size.
# After palpable tumors were observed drug was administered IV for 5 consecutive days, animals rested for 2 days and compound dosed IV again for 5 consecutive days.
SMILES,IC50 [1],also measured
"O=C(NS(=O)(=O)c1ccc(Cl)s1)c1ccc(Br)cc1Cl [Example 1, N-[4-bromo-2-chlorobenzoyl]-5-chlorothiophene-2-sulfonamide]",5.6 µM,
"Cc1cc(Cl)ccc1C(=O)NS(=O)(=O)c1ccc(Br)s1 [Example 2, N-[4-chloro-2-methylbenzoyl]-5-bromothiophene-2-sulfonamide]",6 µM,
"O=C(NS(=O)(=O)c1cc(Br)c(Cl)s1)c1ccc(Br)cc1Cl [Example 3, N-[4-bromo-2-chlorobenzoyl]-4-bromo-5-chlorothiophene-2-sulfonamide]",14.7 µM,
"O=C(NS(=O)(=O)c1ccc(Cl)s1)c1ccc(C(F)(F)F)cc1C(F)(F)F [Example 4, N-[2,4-bis(trifluoromethyl)-benzoyl]-5-chlorothiophene-2-sulfonamide]",7.7 µM,
"Cc1ccc(C(=O)NS(=O)(=O)c2ccc(Cl)s2)c(C)c1 [Example 6, N-[2,4-dimethylbenzoyl]-5-chlorothiophene-2-sulfonamide]",20.6 µM,
"Cc1ccc(C(=O)NS(=O)(=O)c2ccc(Br)s2)c(Cl)c1 [Example 7, N-[2-chloro-4-methylbenzoyl]-5-bromothiophene-2-sulfonamide]",5.2 µM,
"O=C(NS(=O)(=O)c1ccc(Br)s1)c1ccc(Cl)cc1F [Example 9, N-[4-chloro-2-fluorobenzoyl]-5-bromothiophene-2-sulfonamide]",21.7 µM,
"Cc1ccc(S(=O)(=O)NC(=O)c2ccc(Cl)cc2Cl)s1 [Example 16, N-[2,4-dichlorobenzoyl]-5-(methyl)thiophene-2-sulfonamide]",3.7 µM,
"CCc1ccc(S(=O)(=O)NC(=O)c2ccc(Cl)cc2Cl)s1 [Example 17, N-[2,4-dichlorobenzoyl]-5-(ethyl)thiophene-2-sulfonamide]",5 µM,
"CCCc1ccc(S(=O)(=O)NC(=O)c2ccc(Cl)cc2Cl)s1 [Example 18, N-[2,4-dichlorobenzoyl]-5-(propyl)thiophene-2-sulfonamide]",13.2 µM,
"COc1ccc(S(=O)(=O)NC(=O)c2ccc(Cl)cc2Cl)s1 [Example 19, N-[2,4-dichlorobenzoyl]-5-methoxythiophene-2-sulfonamide]",5.8 µM,
"COCc1ccc(S(=O)(=O)NC(=O)c2ccc(Cl)cc2Cl)s1 [Example 20, N-[2,4-dichlorobenzoyl]-5-methoxymethyl-thiophene-2-sulfonamide]",5.7 µM,
"Cc1cc(Cl)ccc1C(=O)NS(=O)(=O)c1ccc(C#N)s1 [Example 28, N-[4-chloro-2-methylbenzoyl]-5-cyanothiophene-2-sulfonamide]",8 µM,
"Cc1cc(Br)ccc1C(=O)NS(=O)(=O)c1ccc(C#N)s1 [Example 29, N-[4-bromo-2-methylbenzoyl]-5-cyanothiophene-2-sulfonamide]",17.3 µM,
"Cc1cc(Cl)ccc1C(=O)NS(=O)(=O)c1ccc(Cl)s1 [Example 30, N-[4-chloro-2-methylbenzoyl]-5-chlorothiophene-2-sulfonamide]",15.8 µM,
"Cc1ccc(C(=O)NS(=O)(=O)c2ccc(Cl)s2)c(Br)c1 [Example 31, N-[2-bromo-4-methylbenzoyl]-5-chlorothiophene-2-sulfonamide]",9.1 µM,
"O=C(NS(=O)(=O)c1ccc(Br)s1)c1ccc(Br)cc1Br [Example 32, N-[2,4-dibromobenzoyl]-5-bromothiophene-2-sulfonamide]",3.9 µM,
"O=C(NS(=O)(=O)c1ccc(Br)s1)c1ccc(Br)cc1Cl [Example 54, N-[4-bromo-2-chlorobenzoyl]-5-bromothiophene-2-sulfonamide]",17 µM,
"O=C(NS(=O)(=O)c1cccs1)c1ccc(Cl)cc1Cl [Example 55, N-[2,4-dichlorobenzoyl]-thiophene-2-sulfonamide]",4.5 µM,
"O=C(NS(=O)(=O)c1ccc(-c2ccccn2)s1)c1ccc(Cl)cc1Cl [Example 56, N-[2,4-dichlorobenzoyl]-5-(2-pyridyl)-thiophene-2-sulfonamide]",5.4 µM,
"Cc1cc(Br)ccc1C(=O)NS(=O)(=O)c1ccc(Br)s1 [Example 57, N-[4-bromo-2-methylbenzoyl]-5-bromothiophene-2-sulfonamide]",3.4 µM,
"O=C(NS(=O)(=O)c1ccc(Br)s1)c1ccc([N+](=O)[O-])cc1Cl [Example 58, N-[2-chloro-4-nitrobenzoyl]-5-bromothiophene-2-sulfonamide]",5.2 µM,
"O=C(NS(=O)(=O)c1ccc(Cl)s1)c1ccc(Cl)cc1Cl [Example 61, N-[2,4-dichlorobenzoyl]-5-chlorothiophene-2-sulfonamide]",1 µM,
"O=C(NS(=O)(=O)c1ccc(Br)s1)c1ccc(Cl)cc1Cl [Example 63, N-[2,4-dichlorobenzoyl]-5-bromothiophene-2-sulfonamide]",1.3 µM,
"O=C([N-]S(=O)(=O)c1ccc(Br)s1)c1ccc(Cl)cc1Cl.[Na+] [Example 64, N-[2,4-dichlorobenzoyl]-5-bromothiophene-2-sulfonamide sodium salt]",,"Tumor Growth Delay ([2]; Experiment A, 30 mg/kg IV): 0 ± 2 days; Tumor Growth Delay ([2]; Experiment A, 60 mg/kg IV): 2 ± 2 days; Tumor Growth Delay ([2]; Experiment A, 80 mg/kg IV): 2 ± 2 days; Tumor Growth Delay ([2]; Experiment B, 30 mg/kg IV): 9 ± 4 days; Tumor Growth Delay ([2]; Experiment B, 60 mg/kg IV): 3 ± 4 days; Tumor Growth Delay ([2]; Experiment B, 80 mg/kg IV): 8 ± 3.6 days"
